The text below walks through data of patent US20240240224A1, “FLUORESCENT D-TYPE AMINO ACID METABOLISM MARKER-BASED METHOD FOR DETECTING ANTIBACTERIAL DRUG SENSITIVITY TEST” (priority 2020, published 2024).

Experiment [1] has as its system K. pneumoniae Kp9. Kind of experiment: FaAST (FDAA metabolic labeling). The experiment is classed as cell-based, Klebsiella pneumoniae. Conditions: unit assumed. In a few lines:
(§1)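 Bacteria at OD600=0.05 in CAMHB mixed with antibiotic dilutions plus Cy5-DAA probe at 0.15 mM final, then incubated 2 h in the dark. Cell-wall labeling fluorescence measured by flow cytometry after PBS dilution.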

Experiment [2] deals with K. pneumoniae Kp6. Kind of experiment: FaAST (FDAA metabolic labeling). The class given is cell-based, Klebsiella pneumoniae. Conditions: unit assumed. The method, boiled down: as §1
Experiment [3] has as its system Pseudomonas aeruginosa PAE2. Kind of experiment: FaAST with DAA-Tetra probe. The experiment is classed as cell-based. Conditions: unit assumed. As for the experimental part: (§2) The specific experimental steps are as follows: • 1. The tested colonies cultured overnight on the plate were picked and mixed thoroughly in 2× Cation-Adjusted Mueller Hinton Broth medium (2×CAMHB) to make bacterial suspension with turbidity of OD600=0.1. • 2. […] Add 50 μL of the bacterial solution prepared in step 1 (the final concentration of the bacterial solution is OD600=0.05) to the 96-well plate, and add 5 μL of 3 mM DAA-Tetra probe (the final concentration is 0.15 mM), mix well, and incubate in the dark at 37° C. 120 rpm for 2 hours. • 4. After culture, dilute the mixed bacterial solution 10 times with PBS solution, and detect the fluorescence intensity of each sample with flow cytometry. The flow detection result is shown in FIG. 14-19, and the arrow is for the MIC value. The minimum inhibitory concentration of antibiotics was obtained according to the fluorescence signal intensity of flow detection, and the statistical results are shown in Table 6.

In experiment [4] the test system is Acinetobacter baumannii ABA19. The experiment can be described thus: FaAST with DAA-Tetra probe. The class given is cell-based. The conditions noted are these: unit assumed. As for the experimental part:
as §2

The subject of experiment [5] is Enterococcus faecium EFM26. The experiment can be described thus: FaAST with DAA-Tetra probe. The experiment is classed as cell-based. The conditions noted are these: unit assumed. The procedure:
as §2

In experiment [6] the test system is alveolar lavage fluid sample 0204, A. baumannii. The experiment can be described thus: FaAST (FDAA) susceptibility test of patient alveolar lavage fluid. The class given is cell-based, Acinetobacter baumannii. Conditions: unit assumed. The procedure:
(§3) With reference to the flow chart of the rapid detection method of antimicrobial susceptibility test based on FDAA metabolic markers shown in FIG. 3, FDAA is used for the detection of antimicrobial susceptibility test of alveolar lavage fluid. The specific experimental steps are as follows: • 1. Mix bronchoalveolar lavage fluid (BALF, 10 ml) of patients with hospital acquired pneumonia with cation regulated broth medium (CAMHB, 10 ml) of twice the concentration to prepare the bacterial fluid to be tested. • 2. Add 45 μl antibiotic solutions of different concentrations to the 96-well plate separately (see Table 1 for antibiotic concentration gradient settings). • 3. Add 50 μl of the bacterial solution prepared in step 1 to the 96-well plate and mix well. • 4. Add 5 μl of 10 mM Cy5-DAA probe (final concentration 0.15 mM, see FIG. 1 for its structure) into each well, mix well, and then cultivate in dark for 2 hours. • 5. Add 200 μl PBS solution for dilution, and then use flow cytometry to detect the fluorescence intensity of each sample.
(§4) The results of antimicrobial susceptibility test of alveolar lavage fluid of seven patients using FDAA and BMD methods are shown in the following table. The drug-resistant bacteria are shown in bold.

Experiment [7] has as its system alveolar lavage fluid sample 0219, A. baumannii. The description is as above. The class given is cell-based, Acinetobacter baumannii. Conditions: unit assumed. As for the experimental part: as §3, §4
Experiment [8] concerns alveolar lavage fluid sample 0130, A. baumannii. The experiment is described as above. Conditions: unit assumed. The class given is cell-based, Acinetobacter baumannii. As for the experimental part:
as §3, §4

Experiment [9] deals with alveolar lavage fluid sample 0206, A. baumannii. Described as above. The experiment is classed as cell-based, Acinetobacter baumannii. Conditions: unit assumed. As for the experimental part: as §3, §4
For experiment [10], the system named is E. faecalis ATCC29212. Kind of experiment: FaAST (FDAA metabolic labeling method). The class given is cell-based, Enterococcus faecalis. Conditions: unit assumed. In a few lines:
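Bacteria at OD600=0.05 in CAMHB exposed to antibiotic concentration gradients with Cy5-DAA probe […], 2 h in the dark. Fluorescence read by flow cytometry after PBS dilution; MIC taken from the curve of fluorescence intensity versus antibiotic concentration.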

Experiment [11] has as its system bacteria contained in alveolar lavage fluid. The experiment can be described thus: Vitek 2 drug sensitivity test of alveolar lavage fluid. As to Sensibility: key: S: Drug sensitive; R: Drug resistance. The class given is cell-based.
Experiment [12] deals with alveolar lavage fluid sample 0204, A. baumannii. The experiment can be described thus: BMD susceptibility test of patient alveolar lavage fluid. The conditions noted are these: unit assumed. The class given is cell-based, Acinetobacter baumannii.
Experiment [13] relates to A. baumannii Ab16. Kind of experiment: BMD susceptibility test. The experiment is classed as cell-based, Acinetobacter baumannii. Conditions: unit assumed.
In experiment [14] the test system is E. coli Ec13. Kind of experiment: BMD susceptibility test. The class given is cell-based, Escherichia coli. Conditions: unit assumed.
For experiment [15], the system named is alveolar lavage fluid sample 0226, K. pneumoniae. The experiment can be described thus: BMD susceptibility test of patient alveolar lavage fluid. The experiment is classed as cell-based, Klebsiella pneumoniae. The conditions noted are these: unit assumed.
Excerpt: as §4

Experiment [16] concerns alveolar lavage fluid sample 0203, K. pneumoniae. The description is as above. The class given is cell-based, Klebsiella pneumoniae. Conditions: unit assumed.
Excerpt: as §4

The subject of experiment [17] is Pseudomonas aeruginosa PAE853. The experiment can be described thus: FaAST with DAA-Cy5-2 probe. The experiment is classed as cell-based. The conditions noted are these: unit assumed. As for the experimental part:
as §3
(§5) The specific steps are the same as in Example 5. […] The minimum inhibitory concentration of antibiotics was obtained according to the fluorescence signal intensity of flow detection, and the statistical results are shown in Table 7.

Experiment [18] deals with Acinetobacter baumannii ABA16. The experiment can be described thus: FaAST with DAA-Cy5-2 probe. Conditions: unit assumed. The class given is cell-based. The procedure: as §3, §5

Converted amounts (≈) assume the structure as drawn. Bounds are passed on as bounds.

As to `C[C@H]1COc2c(N3CCN(C)CC3)c(F)cc3c(=O)c(C(=O)O)cn1c23` [Levofloxacin, levofloxacin], the FaAST (MIC) in [1] stood at 128 µg/mL; in [2] it was 0.5 µg/mL; in experiment [6], 0.25 µg/mL; in experiment [7], 64 µg/mL; in [8], 64 µg/mL; in experiment [9], 64 µg/mL. Also, the FaAST (MIC) in experiment [10] was 1 µg/mL. Further, the MIC, FaAST was determined as 0.5 µg/mL (≈ 1.38 µM) in experiment [3]; 0.5 µg/mL (≈ 1.38 µM) in [4]; 64 µg/mL (≈ 177 µM) in experiment [5]; 0.5 µg/mL (≈ 1.38 µM) in experiment [17]; 32 µg/mL (≈ 88.6 µM) in experiment [18]. The same compound showed an MIC in experiment [11] of at least 8 µg/mL. Also, the Sensibility entry in [11] is “R”. The BMD (MIC) in [12] amounted to 0.5 µg/mL; in [13] it was 16 µg/mL; in [14], 4 µg/mL; in [15] it was 1 µg/mL; in [16], 0.25 µg/mL.

Broadly, the MIC is the lowest concentration found to suppress growth. A high value points to weaker potency.
